This note sets out measurements from patent US20220184222A1, “BICYCLE TOXIN CONJUGATES AND USES THEREOF” (BicycleTx Limited, priority 2019, published 2022).

This assay deals with CTG-0160. Description: Champions TumorGraft NSCLC PDX efficacy, model CTG-0160. It counts as in vivo, Mus musculus. The method, then:
Mice were implanted subcutaneously into the left flank with tumor fragments from one of the various models. After tumors grew to an average of 150-300 mm^3, mice were treated by IV administration Q7Dx4 (n=2) with vehicle or 3 mg/kg of BT5528. Effects on tumor growth were evaluated by measuring percent tumor growth inhibition (% TGI), and the number of complete responders (CR), partial responders (PR), and tumor-free survivors (TFS). Tolerability was assessed by body weight loss, lethality, and clinical signs of adverse treatment-related side effects. Tumor volumes and body weights were measured twice a week.
Dosing solutions of BT5528 […] were pre-formulated. These dosing solutions were stored at −80° C. in the dark. On each day of dosing, a frozen aliquot of each test agent was thawed, stored at 2-8° C. and used for dosing.
The animals used in this study are described below: • Species: Mus musculus • Strain: Athymic Nude-Foxn1^nu (immune-compromised) • Source: Envigo (Indianapolis, Ind., USA) • Number of animals per group: 2 • Age and sex: At least 6-8 weeks of age at start of dosing, female • Weight: At least 18 grams at start of dosing • Acclimation period: 3 days
Stock mice were implanted with tumor cells from Champions TumorGraft® models CTG-0160, CTG-0170, CTG-0178, CTG-0192, CTG-0363, CTG-0808, CTG-0838, CTG-0848, CTG-1212, CTG-1502, CTG-1535, CTG-2011, CTG-2393, CTG-2539 or CTG-2540. After the tumors reached 1000-1500 mm^3, they were harvested and the tumor fragments (approximately 5×5×5 mm^3) were implanted SC in the left flank of the female study mice. Each animal was implanted with a specific passage lot and documented. Tumor growth was monitored twice a week using digital calipers and the tumor volume (TV) was calculated using the formula (0.52×[length×width^2]). When the TV reached an average volume of 150-300 mm^3, animals were matched by tumor size and assigned into Vehicle Control and treatment groups (n=2/group) and dosing was initiated on Day 0. After the initiation of dosing on Day 0, animals were weighed twice per week using a digital scale and TV was measured twice per week and also on the final day of study. The study was completed when the mean tumor volume of Vehicle Control reached 1500 mm^3 or up to Day 60, whichever occurred first.
Beginning on Day 0, animals were observed daily and weighed twice weekly using a digital scale; data including individual and mean gram weights, mean percent weight change versus Day 0 (% vD0) were recorded for each group and % vD0 plotted at study completion. […] Treatment resulting in a mean % vD0>20% and/or >10% mortality was considered above the maximum tolerated dose. Maximum mean % vD0 (weight nadir) for each treatment group was reported at study completion.
Inhibition of tumor growth was determined by calculating the percent TGI (100%×[1−(final MTV−initial MTV of a treated group)/(final MTV−initial MTV of the control group)]). Treatment started on Day 0.
Additional endpoints used to evaluate efficacy were: the number of complete responders (CR), partial responders (PR), and tumor-free survivors (TFS). PRs were considered exclusive of CRs, as were TFS.
Statistical analyses of anti-tumor efficacy were performed using one-way ANOVA followed by Dunnett's multiple comparisons test (GraphPad Prism version 8.2.0). Significant p-values=<0.05.
Animals were dosed according to the schedule on Table 7-1. The Vehicle Control group reached endpoint of average tumor volume >1500 mm^3 on Day 21 and was removed from the study. The study was terminated on Day 28. Therefore, the tumor volumes on Day 21 were used for analysis of anti-tumor activity.

[1] abbreviates: CTG-0160, 3 mg/kg IV Q7Dx4, Day 0-28.

Starred links: 1 amine or outer side, 2 acyl side, 3 side chain; linkers in the order of their positions; H or OH if unused. Non-standard residues stand in square brackets, D forms with d. Residues, ends and D or L forms follow the SMILES beside them. *: point of attachment. Dolaproine = CO[C@@H]([C@@H]1CCCN1)[C@@H](C)C(=O)O; Dil = CC[C@H](C)[C@H](NC)[C@@H](CC(=O)O)OC; PABC = O=C(OCc1ccc(N[*:1])cc1)[*:2]; X1 = O=C(CCCC(=O)*)ON1C(=O)CCC1=O; X2 = C[C@@H](N*)[C@@H](O)c1ccccc1; Cit = NC(=O)NCCC[C@H](N)C(=O)O; NMeV = CN[C@H](C(=O)O)C(C)C

Consider `CC[C@H](C)[C@@H]([C@@H](CC(=O)N1CCC[C@H]1[C@H](OC)[C@@H](C)C(=O)N[C@H](C)[C@@H](O)c1ccccc1)OC)N(C)C(=O)[C@@H](NC(=O)[C@H](C(C)C)N(C)C(=O)OCc1ccc(NC(=O)[C@H](CCCNC(N)=O)NC(=O)[C@@H](NC(=O)CCCC(=O)ON2C(=O)CCC2=O)C(C)C)cc1)C(C)C` [BT5528] (X1-V[Cit][PABC][NMeV]V[Dil][Dolaproine]-X2), for which, where the note is “3 mg/kg IV Q7Dx4, Day 21”, the “MTV (mean tumor volume)” value is 400±187 mm^3 and the TGI was found to be 87%. Moreover, under setting [1], the “# CR (complete responders)” value was 0/0/0, the “# PR (partial responders)” value is 0/0/0 and the “# TFS (tumor-free survivors)” value is listed as 0/0/0. For the same compound, the “% TGI” value (CTG-0160, 3 mg/kg IV Q7Dx4, Day 21) is recorded as 87%. Also, the “Day 21 Tumor Volume Mean TV ± SEM” value (CTG-0160, BT5528 3 mg/kg IV Q7Dx4, Day 21, n=2) was 400 ± 187 mm^3.

The TGI is the reduction of tumour growth relative to the control group. Read a low TGI as little slowing of growth.
